Values after ≈ are worked out from the molar mass of the structure shown. Read-outs that look alike come from different tables or passages of the source. Non-standard residues stand in square brackets, D forms with d. No end group written: not given here. hArg = N=C(N)NCCCC[C@H](N)C(=O)O; Agb = N=C(N)NCC[C@H](N)C(=O)O; Orn = NCCC[C@H](N)C(=O)O
Tests used:
[1] = test system: S. aureus (MRSA SAP0017); format: cell-based, Staphylococcus aureus; settings: for % Biofilm Inhibition: SPOT synthesized control peptides, determined as in Table 5, Table 7; for % Residual MRSA biofilm growth compared to untreated control: SPOT synthesized peptide, ~12.5 μM, clinical MRSA strain, crystal violet assay
Procedure: Methods of assessment of anti-biofilm activity: MRSA S. aureus strain SAP0017 biofilm formation was initially analyzed using a static abiotic solid surface assay as described elsewhere (de la Fuente-Nunez et al., 2012) and shown graphically in FIG. 2. Dilutions (1/100) of overnight cultures were incubated in BM2 biofilm-adjusted medium [62 mM potassium phosphate buffer (pH 7), 7 mM (NH4)2SO4, 2 mM MgSO4, 10 μM FeSO4, 0.4% (wt/vol) glucose, 0.5% (wt/vol) Casamino Acids], or a nutrient rich medium such as Tryptic soy broth supplemented with 1% glucose, in polypropylene microtiter plates (Falcon, United States) in the absence (control) or presence of peptide. Peptide was added at time zero (prior to adding the diluted, overnight cultures) in varying concentrations, and the amount biofilm formation was recorded after 22-46 h incubation for most bacteria. To quantify biofilm growth, planktonic cells were removed and biofilm cells adhering to the side of the wells were stained with crystal violet, and absorbance at 595 nm was measured using a microtiter plate reader (Bio-Tek Instruments Inc., United States).

[2] = test system: IL-1β; assay: Suppression of LPS-induced IL-1β production in human PBMCs, ELISA (Tables 6, 7; FIGS. 6-9, 13); settings: SPOT synthesized control peptides, determined as in Table 6; Table 7
[3] = test system: MCP-1; assay: MCP-1 chemokine induction in human PBMCs, ELISA (Tables 6, 7; FIGS. 6-9, 13); format: cell-based; settings: SPOT synthesized control peptides, determined as in Table 6; Table 7
Procedure: Venous blood (20 ml) from healthy volunteers was collected in Vacutainer® collection tubes containing sodium heparin as an anticoagulant (Becton Dickinson, Mississauga, ON) in accordance with UBC ethical approval and guidelines. Blood was diluted 1:1 with complete RPMI 1640 medium and separated by centrifugation over a Ficoll-Paque® Plus (Amersham Biosciences, Piscataway, N.J., USA) density gradient. White blood cells were isolated from the buffy coat, washed twice in PBS and then resuspended in RPMI 1640 complete medium (containing 10% fetal bovine serum), and the number of peripheral blood mononuclear cells (PBMC) was determined by Trypan blue exclusion. PBMCs (5×10^5) were seeded into 12-well tissue culture dishes (Falcon; Becton Dickinson) at 0.75-1×10^6 cells/ml at 37° C. in 5% CO2. The above conditions were chosen to mimic conditions for circulating blood monocytes entering tissues at the site of infection via extravasation.
Following incubation of the cells under various treatment regimens, the tissue culture supernatants were centrifuged at 1000×g for 5 min, then at 10,000×g for 2 min to obtain cell-free samples. Supernatants were aliquoted and then stored at −20° C. prior to assay for various chemokines by capture ELISA (eBioscience and BioSource International Inc., CA, USA respectively)

[4] = test system: PBMCs; assay: Cytotoxicity towards PBMCs, lactate dehydrogenase (LDH) release assay (Tables 6, 7); settings: SPOT synthesized peptide ~25 μM, PBMCs from 3 human donors; Table 6
[5] = test system: planktonic methicillin resistant S. aureus; assay: microbe, parasite or virus in culture; format: cell-based, Staphylococcus aureus; settings: for MIC: Staphylococcus aureus

Molecule | % Biofilm Inhibition [1] [%] | % Toxicity (LDH Release) [4] [%] | other results
C20 (KLLGILKQAIVV) [Peptide C20] | 100 | – | Fold Change in IL1-β relative to untreated LPS-stimulated cells [2]: 0.78; MCPI production in PBMC [3]: 106 pg/mL
IVKWIAQWKLVG-NH2 [Imax- 10] | – | −1 | –
KRLQWVKVKKIR-NH2 [BFmax-16, KRLQWVKVKKIR] | – | 0.6 | –
WAVRALKVKWAL-NH2 [Imax-20, WAVRALKVKWAL] | – | −2.7 | –
C57 (KGKIRKIVLIRR) [Peptide C57] | 102 | – | Fold Change in IL1-β relative to untreated LPS-stimulated cells [2]: 0.9; MCPI production in PBMC [3]: 157 pg/mL
ALAIKVWIKILQ-NH2 [Imax-7, ALAIKVWIKILQ] | – | −1.1 | –
C33 (KIWLLKLRQRQK) [Peptide C33] | 102 | – | Fold Change in IL1-β relative to untreated LPS-stimulated cells [2]: 1.23; MCPI production in PBMC [3]: 1685 pg/mL
C29 (VIAKIVLLRAGL) [Peptide C29] | 100 | – | Fold Change in IL1-β relative to untreated LPS-stimulated cells [2]: 0.99; MCPI production in PBMC [3]: 1809 pg/mL
IQLKLIWVKRKW-NH2 [MILBFmax5, IQLKLIWVKRKW] | – | −1.3 | –
VVGLRVRWVRLW-NH2 [Imin-3, VVGLRVRWVRLW] | – | −4.3 | –
C54 (QVVVKKKAIQVV) [Peptide C54] | 101 | – | Fold Change in IL1-β relative to untreated LPS-stimulated cells [2]: 0.95; MCPI production in PBMC [3]: 651 pg/mL
VRLIVAVRIWRR-NH2 [Peptide 1018, VRLIVAVRIWRR, reference compound] | – | 21.8 | MIC (μM) MHB ([5]; planktonic methicillin resistant S. aureus, broth microdilution in Mueller Hinton Broth (MHB), mean of three biological replicates): 4 µM; MIC (μM) TSB with 1% Glucose ([5]; planktonic methicillin resistant S. aureus, broth microdilution in Tryptic Soy Broth (TSB) supplemented with 1% glucose, mean of three biological replicates): >64 µM; percentage of biofilm inhibited ([1]; SPOT-synthesized peptide, ~2.5 μM, MRSA SAP0017): 31%
C10 (QLRVAWKRAWWA) [Peptide C10] | 87 | – | Fold Change in IL1-β relative to untreated LPS-stimulated cells [2]: 1.34; MCPI production in PBMC [3]: 1313 pg/mL
KIWGLLKLGIAL-NH2 [Imax-6, KIWGLLKLGIAL] | – | 1.1 | –
C44 (LLKLKQKGIVIA) [Peptide C44] | 102 | – | Fold Change in IL1-β relative to untreated LPS-stimulated cells [2]: 0.94; MCPI production in PBMC [3]: 365 pg/mL
KVVWWKVIIKVL-NH2 [BFmax-2, KVVWWKVIIKVL] | – | −3.5 | –
C16 (KKIRQWGKAAAW) [Peptide C16] | 100 | – | Fold Change in IL1-β relative to untreated LPS-stimulated cells [2]: 0.99; MCPI production in PBMC [3]: 571 pg/mL
GRVLKIVWRKGR-NH2 [Mmax-3, GRVLKIVWRKGR] | – | 4.2 | –
C47 (KVIQWIIVRRVL) [Peptide C47] | 102 | – | Fold Change in IL1-β relative to untreated LPS-stimulated cells [2]: 0.76; MCPI production in PBMC [3]: 1193 pg/mL
QQVKWWLIRWLA-NH2 [IBFmax-11, QQVKWWLIRWLA] | – | −0.1 | –
C30 (RGARVIRWKLRR) [Peptide C30] | 100 | – | Fold Change in IL1-β relative to untreated LPS-stimulated cells [2]: 1.23; MCPI production in PBMC [3]: 1153 pg/mL
C53 (GKLKIKVKLGIA) [Peptide C53] | 98 | – | Fold Change in IL1-β relative to untreated LPS-stimulated cells [2]: 0.94; MCPI production in PBMC [3]: 113 pg/mL
KKQKKIWRRILV-NH2 [Mmax- 16] | – | 1.8 | –

Molecule | % Biofilm Inhibition [1] [%] | % Toxicity (LDH Release) [4] [%] | other results
C52 (KIVQKKLRLVVI) [Peptide C52] | 99 | – | Fold Change in IL1-β relative to untreated LPS-stimulated cells [2]: 0.76; MCPI production in PBMC [3]: 291 pg/mL
C45 (QWLVKWVIIKVV) [Peptide C45] | 102 | – | Fold Change in IL1-β relative to untreated LPS-stimulated cells [2]: 1; MCPI production in PBMC [3]: 499 pg/mL
VKGAIKRGIWVK-NH2 [Imax- 5] | – | 3 | –
VARWKIIIAKLW-NH2 [BFmax-5, VARWKIIIAKLW] | – | 2 | –
RVLIKWKKVIVV-NH2 [IBFmax-8, RVLIKWKKVIVV] | – | −1.8 | –
CN[C@H](CC(C)C)C(=O)N[C@H]1C(=O)N[C@@H](CC(N)=O)C(=O)N[C@H]2C(=O)N[C@H]3C(=O)N[C@H](C(=O)N[C@H](C(=O)O)c4cc(O)cc(O)c4-c4cc3ccc4O)[C@H](O)c3ccc(c(Cl)c3)Oc3cc2cc(c3O[C@@H]2O[C@H](CO)[C@@H](O)[C@H](O)[C@H]2O[C@H]2C[C@](C)(N)[C@H](O)[C@H](C)O2)Oc2ccc(cc2Cl)[C@H]1O [Vancomycin] | – | – | MIC ([5]; read-out: MIC (μM) MHB): 0.34 µM (≈ 0.493 µg/mL); MIC ([5]; read-out: MIC (μM) TSB with 1% Glucose): 0.68 µM (≈ 0.986 µg/mL)
IRILVLRKAIIV-NH2 [MILBFmax-9, IRILVLRKAIIV] | – | 23.9 | –
GLIIKIIKKRLW-NH2 [IBFmax-15, GLIIKIIKKRLW] | – | 25.1 | –
VQWIQIVVWRKR-NH2 [BFmax-6, VQWIQIVVWRKR] | – | −4.4 | –
LKLKAILKIIRV-NH2 [MILBFmax-1, LKLKAILKIIRV] | – | 1.5 | –
KVQIIKQLIAKK-NH2 [BFmax-7, KVQIIKQLIAKK] | – | −3.9 | –
QIIKVVWRAVII-NH2 [MILBFmax-8, QIIKVVWRAVII] | – | −2.3 | –
WWIKIVVIRVRR-NH2 [IBFmax-13, WWIKIVVIRVRR] | – | −2 | –
RARQIRWLRKRV-NH2 [Imin-4, RARQIRWLRKRV] | – | −4.9 | –
IKWVLRKIVQII-NH2 [IBFmax-17, IKWVLRKIVQII] | – | 3.6 | –
VIKVLIKRWLKL-NH2 [BFmax-9, VIKVLIKRWLKL] | – | 7.4 | –
RQVRVKRWRARW-NH2 [Mmax- 18] | – | −4.9 | –
IVKKVKLIWGVK-NH2 [MILBFmax-13, IVKKVKLIWGVK] | – | −3.2 | –
VRLIVAVRIWOrnR (VRLIVAVRIW[Orn]R-NH2; N-terminus assumed; SMILES CC[C@H](C)[C@H](NC(=O)[C@H](CCCNC(=N)N)NC(=O)[C@@H](NC(=O)[C@H](C)NC(=O)[C@@H](NC(=O)[C@@H](NC(=O)[C@H](CC(C)C)NC(=O)[C@H](CCCNC(=N)N)NC(=O)[C@@H](N)C(C)C)[C@@H](C)CC)C(C)C)C(C)C)C(=O)N[C@@H](Cc1c[nH]c2ccccc12)C(=O)N[C@@H](CCCN)C(=O)N[C@@H](CCCNC(=N)N)C(N)=O) [Peptide 1018-k35] | – | – | % Residual MRSA biofilm growth compared to untreated control [1]: 34%
VRLIVAVRIWHarR (VRLIVAVRIW[hArg]R-NH2; N-terminus assumed; SMILES CC[C@H](C)[C@H](NC(=O)[C@H](CCCNC(=N)N)NC(=O)[C@@H](NC(=O)[C@H](C)NC(=O)[C@@H](NC(=O)[C@@H](NC(=O)[C@H](CC(C)C)NC(=O)[C@H](CCCNC(=N)N)NC(=O)[C@@H](N)C(C)C)[C@@H](C)CC)C(C)C)C(C)C)C(=O)N[C@@H](Cc1c[nH]c2ccccc12)C(=O)N[C@@H](CCCCNC(=N)N)C(=O)N[C@@H](CCCNC(=N)N)C(N)=O) [Peptide 1018-r35] | – | – | % Residual MRSA biofilm growth compared to untreated control [1]: 33%
C74 (VRLIVA[Agb]RIWRR) [Peptide C74] | 106 | – | –
C70 (VR[Agb]IVAVRIWRR) [Peptide C70] | 98 | – | –
